Series [1] is described as follows: Photo-bleaching of palm oil stained cotton cloths in wash followed by weatherometer irradiation. To be noted: staining relative to clean white cloth. As to the method: Palm oil stained cloths (Brazilian) were prepared as follows. Palm oil 0.06 g was added deposited onto individual woven white cotton cloth samples weighing 1.2 g each. The cloth samples were allowed to age for 1 hour before being washed. Each wash consisted of four stained cloths, 200 ml of 40° C. water and 1 g of Persil Colour-washing powder (purchased in UK, zeolite based). The wash liquor was agitated for 20 minutes then the clothes rinsed in cold water, wrung and irradiated in a weatherometer for 18 minutes. The weatherometer is designed to simulate outside line drying and was set to give 42 W/m2 in the UVA&B.
The washes were duplicated but with the addition of 9 ppm of the photo-bleach to the wash solution, corresponding to 0.18% by weight on the powder formulation.
After the wash/irradiation procedure the staining of the clothes relative to clean white cloth was measured on a reflectometer and expressed as the deltaE value.

For series [2], the system named is 3T3. Kind of series: In Vitro 3T3 NRU Photo-toxicity Test. To be noted: for Result: photo-toxicity classification.
Protocol: (§1) Photo-bleaches were tested for photo-toxicity using the Photo-toxicity-In Vitro 3T3 NRU Photo-toxicity Test” of the Commission Directive 2000/33/EC of 25 Apr.
Series [3] has as its system 3T3.
Protocol: as §1
[4] abbreviates: Example 1, 9 ppm photo-bleach in wash solution, 40° C. wash, irradiated 18 minutes in weatherometer.
The mark [5] stands for this setting: Table 3, PIF quoted to 2 significant figures.
Setting [6] is: Example 2, same procedure as Example 1, 9 ppm photo-bleach.

Values joined by “and” are separate entries in the source; they are usually repeats but may differ in a detail not shown here. Equal values may be shown once. “Also recorded” adds a separate entry of the source. Read-outs that look alike come from different tables or passages of the source. Where only a bound is given, the exact number is not on record here.

On to `Cc1cc(C)c(C(=O)c2ccccc2)c(C)c1` [2,4,6-trimethylbenzophenone], for which, in series [1] (setting [4]), the “Average deltaE” value amounted to 16.2. This compound yielded a PIF with 3T3 [2] (setting [5]) of 28. The Result result with 3T3 [2] (Table 3) was “Photo-toxic (PIF≧5 or MPE≧0.1)”.
On to 2-sulphate anthraquinone, for which the PIF in the series on 3T3 [3] is >170.
As to `CC(C)(O)C(=O)c1ccc(OCCO)cc1` [2-hydroxy-4′-hydroxyethoxy-2-methylpropiophenone], in the series with 3T3 [2] (setting [5]), the PIF is reported as >120. For the same compound, the Result entry in the series on 3T3 [2] (Table 3) is “Photo-toxic (PIF≧5 or MPE≧0.1)”.
The like results for `CN(C)CCCN1c2ccccc2Sc2ccc(Cl)cc21` [Chlorpromazine] were, in that order, 43 and “Photo-toxic (PIF≧5 or MPE≧0.1)”.
The like results for `Cc1cc(C)c(C(=O)P(=O)(C(=O)c2c(C)cc(C)cc2C)c2ccccc2)c(C)c1` [Phenylbis(2,4,6-trimethylbenzoyl)-phosphine oxide] were, in that order, >12 and “Photo-toxic (PIF≧5 or MPE≧0.1)”.
Take `CC1(C)[C@@H]2CC[C@@]1(C)C(=O)C2=O` [Camphoroquinone]: the “Average deltaE” value in series [1] (setting [6]) amounted to 23.5.
As to `CCc1ccc2c(c1)C(=O)c1ccccc1C2=O` [2-ethylanthraquinone], the “Average deltaE” value in series [1] (setting [4]) worked out at 2.5. The PIF with 3T3 [2] (setting [5]) was >1000. The Result entry with 3T3 [2] (Table 3) is recorded as “Photo-toxic (PIF≧5 or MPE≧0.1)”.
`CC1=CC(=O)c2ccccc2C1=O` [Vitamin K3, 2-methyl-1,4-napthoquinone]: the “Average deltaE” value in series [1] (setting [6]) stood at 2.9. Besides, the photo-toxicity classification entry in the series with 3T3 [2] is given as “not photo-toxic; also recorded: non-photo-toxic”. For the same compound, the PIF is 2.3 in the series on 3T3 [2] (setting [5]); 1.9 and 1.6 in the series on 3T3 [2] (experiments repeated twice more). For the same compound, in the series with 3T3 [2] (Table 3), the Result result is reported as “Non-photo-toxic (PIF<5 or MPE<0.1)”.
In the case of `O=C(c1ccccc1)C1(O)CCCCC1` [1-hydroxycyclohexylphenyl ketone], the PIF in the series with 3T3 [3] is >7.5.

The values are drawn from patent US20060229224A1, “Bleaching composition” (priority 2003, published 2006).
